Here are results for 22 compounds from patent US7977481B2, “Pyrimidinyl-thiophene kinase modulators” (SGX Pharmaceuticals, Inc., priority 2005, dated 2011).

Where only a bound is given, the exact number is not on record here.

In the assay the target is T1, Autophosphorylated AurA kinase (Homo sapiens, UniProt O14965).
T1 construct: made in house; host or cells: Sf9 insect cells
T1 sequence (O14965 1-403): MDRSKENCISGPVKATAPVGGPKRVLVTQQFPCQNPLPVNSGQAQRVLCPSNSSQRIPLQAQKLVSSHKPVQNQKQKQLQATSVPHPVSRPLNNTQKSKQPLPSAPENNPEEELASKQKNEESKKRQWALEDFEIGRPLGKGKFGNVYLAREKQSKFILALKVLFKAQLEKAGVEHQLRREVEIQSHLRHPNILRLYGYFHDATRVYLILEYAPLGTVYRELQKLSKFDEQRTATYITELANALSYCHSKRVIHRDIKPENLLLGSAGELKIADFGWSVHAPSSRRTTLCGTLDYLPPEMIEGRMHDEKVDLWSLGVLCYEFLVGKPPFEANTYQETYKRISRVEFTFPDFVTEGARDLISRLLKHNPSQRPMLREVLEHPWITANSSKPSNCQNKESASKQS
Kind of assay: AurA Luminescence-Based ATP Depletion Enzyme Assay. In kind it is biochemical. As to conditions: 10 μM ATP. As for the experimental part:
AurA Luminescence-Based ATP Depletion Enzyme Assay
Materials: Kemptide peptide substrate=LRRASLG (Biopeptide, San Diego, Calif.), ATP (Sigma Cat#A-3377, FW=551), HEPES buffer, pH 7.5, 10% Brij 35 (Calbiochem Cat#203728), MgCl2, Staurosporine (Streptomyces sp. Sigma Cat#85660-1MG), white Costar 384-well flat-bottom plate (VWR Cat#29444-088), Autophosphorylated AurA kinase (see below), Kinase-Glo™ (Promega Cat#V6712).
Stock Solutions: 10 mM Kemptide peptide (7.72 mg/ml in water), stored at −20° C.; 100 mM HEPES buffer+0.015% Brij 35, pH 7.5 (5 ml 1M HEPES stock+75 μL 10% Brij 35+45 ml miliQH2O); 10 mM ATP (5.51 mg/ml in dH2O) stored at −20° C. (diluted 50 μl into total of 10 ml miliQH2O daily=50 μM ATP working stock); 100 mM MgCl2; 200 μM Staurosporine, 2× Kinase-Glo™ reagent (made fresh or stored at −20° C.).
AurA Autophosphorylation Reaction: ATP and MgCl2 were added to 1-5 mg/ml AurA at final concentrations of 10 mM and 100 mM, respectively. The autophosphorylation reaction was incubated at 21° C. for 2-3 h. The reaction was stopped by the addition of EDTA to a final concentration of 50 mM, and samples were flash frozen with liquid N2 and stored at −80° C.
Standard Assay Setup for 384-well format (20 μl kinase reaction, 40 μl detection reaction): 10 mM MgCl2; 0.2 mM Kemptide peptide; 1 μl test compound (in DMSO); 0.3 μg/ml Autophosphorylated AurA kinase; 10 μM ATP; 100 mM HEPES+0.015% Brij buffer. Positive controls contained DMSO with no test compound. Negative controls contained 5 μM staurosporine. The kinase reactions were initiated at time t=0 by the addition of ATP. Kinase reactions were incubated at 21° C. for 45 min, then 20 μl of Kinase-Glo™ reagent were added to each well to quench the kinase reaction and initiate the luminescence reaction. After a 20 min incubation at 21° C., the luminescence was detected in a plate-reading luminometer.
The Sf9 insect cell pellets (˜18 g) produced from 6 L of cultured cells expressing human Aurora-2 were resuspended in 50 mM Na Phosphate pH 8.0, 500 mM NaCl, 10% glycerol, 0.2% n-octyl-β-D-glucopyranoside (BOG) and 3 mM β-Mercaptoethanol (BME). One tablet of Roche Complete, EDTA-free protease inhibitor cocktail (Cat#1873580) and 85 units Benzonase (Novagen Cat#70746-3)) were added per 1 L of original culture. Pellets were resuspended in approximately 50 ml per 1 L of original culture and were then sonicated on ice with two 30-45 sec bursts (100% duty cycle). Debris was removed by centrifugation and the supernatant was passed through a 0.8 μm syringe filter before being loaded onto a 5 ml Ni^2+ HiTrap column (Pharmacia). The column was washed with 6 column volumes of 50 mM Na Phosphate pH 8.0, 500 mM NaCl, 10% glycerol, 3 mM BME. The protein was eluted using a linear gradient of the same buffer containing 500 mM Imidazole. The eluant (24 ml) was cleaved overnight at 4° C. in a buffer containing 50 mM Na Phosphate pH 8.0, 500 mM NaCl, 10% glycerol, 3 mM BME and 10,000 units of TEV (Invitrogen Cat#10127-017). The protein was passed over a second nickel affinity column as described above; the flow-through was collected. The cleaved protein fractions were combined and concentrated using spin concentrators. Further purification was done by gel filtration chromatography on a S75 sizing column in 50 mM Na Phosphate (pH 8.0), 250 mM NaCl, 1 mM EDTA, 0.1 mM AMP-PNP or ATP buffer, and 5 mM DTT. The cleanest fractions were combined and concentrated to approximately 8-11 mg/ml, and were either flash frozen in liquid nitrogen in 120 μl aliquots and stored at −80° C., or stored at 4° C.
One may read the IC50 as the midpoint of a concentration-inhibition curve. Low values mean greater potency, high ones weaker potency. For `COc1ccc(Nc2nccc(-c3ccc(Br)s3)n2)cc1C(=O)N(C)C`, the IC50 was 100 to 500 nM.

For `CC(O)c1cccc(Nc2nccc(-c3ccc(-c4cccc(CC#N)c4)s3)n2)c1` (stereo not shown), the concentration for half-maximal inhibition (IC50) lay within 100 to 500 nM. Compound `CNC(=O)c1ccc(-c2ccc(-c3ccnc(Nc4cccc(C(C)O)c4)n3)s2)cc1` (stereo not shown) had a half-maximal inhibitory concentration (IC50) of 100 to 500 nM.

The compound `C[C@@H](NC(=O)c1ccc(-c2ccnc(Nc3cccc(CN4CCN(CCO)CC4)c3)n2)s1)c1ccccc1` yielded an IC50 below 100 nM. Consider `C[C@@H](NC(=O)c1ccc(-c2ccnc(Nc3cccc(CN4CCC(O)CC4)c3)n2)s1)c1ccccc1`, for which the IC50 is below 100 nM.

`CCN(CCC#N)S(=O)(=O)c1ccc(-c2ccnc(Nc3cccc(C(C)O)c3)n2)s1` (stereo not shown) had an IC50 below 100 nM. As for `CCC(=O)Nc1ccc(-c2ccnc(Nc3cccc(C)c3)n2)s1`, the half-inhibitory concentration (IC50) fell in the range of 100 to 500 nM. The compound `CC(O)c1cccc(Nc2nccc(-c3ccc(S(=O)(=O)Cc4ccccc4)s3)n2)c1` (stereo not shown) displayed an IC50 of 100 to 500 nM.

In turn, `CCN(CCC#N)C(=O)c1ccc(-c2ccnc(Nc3cccc(C(C)O)c3)n2)s1` (stereo not shown) returned an IC50 of 100 to 500 nM.

For `CC(O)c1cccc(Nc2nccc(-c3ccc(S(=O)(=O)N(C)C)s3)n2)c1` (stereo not shown), the IC50 was below 100 nM. In the case of `CCN(CCC#N)S(=O)(=O)c1ccc(-c2ccnc(Nc3cccc(C)c3)n2)s1`, the IC50 was below 100 nM. For `COc1ccc(Nc2nccc(-c3ccc(Br)s3)n2)cc1OC`, the half-inhibitory concentration (IC50) was below 100 nM. `CC(O)c1cccc(Nc2nccc(-c3ccc(-c4cccnc4)s3)n2)c1` (stereo not shown) yielded an IC50 of 100 to 500 nM. For `Brc1ccc(-c2ccnc(Nc3cccc(CN4CCOCC4)c3)n2)s1` the value was above 500 nM; for `O=C(NCc1ccccc1)c1ccc(-c2ccnc(Nc3ccc(CCO)cc3)n2)s1`, below 100 nM. As to `CN(Cc1ccccc1)C(=O)c1ccc(-c2ccnc(Nc3ccc(CCO)cc3)n2)s1`, the IC50 was below 100 nM. Take `CC(O)c1cccc(Nc2nccc(-c3ccc(-c4ccncc4)s3)n2)c1` (stereo not shown): the 50% inhibitory concentration (IC50) was above 500 nM. Turning to `OC1CCN(Cc2cccc(Nc3nccc(-c4ccc(CNc5ccccc5Cl)s4)n3)c2)CC1`, the IC50 was above 500 nM.

For `CCC1CCCCN1S(=O)(=O)c1ccc(-c2ccnc(Nc3cccc(C(C)O)c3)n2)s1` (stereo not shown), the IC50 lay within 100 to 500 nM. On to `O=C(c1cccc(Nc2nccc(-c3ccc(Br)s3)n2)c1)N1CCN(CCO)CC1`, for which the IC50 was in the range of 100 to 500 nM.

Turning to `CN(C)C1CCN(c2cccc(Nc3nccc(-c4ccc(C(=O)NCc5ccco5)s4)n3)c2)C1` (stereo not shown), the 50% inhibitory concentration (IC50) was 100 to 500 nM. On to `CN(C)C(=O)c1cccc(Nc2nccc(-c3ccc(Br)s3)n2)c1`, for which the IC50 fell in the range of 100 to 500 nM.
